smiles,measurement,setting,value
CSCCC(NC(C)=O)C(=O)O (racemic),solubility (mole fraction),"in 1,4-dioxane, 283.15 K",0.0227
same,solubility (mole fraction),"in 1,4-dioxane, 293.15 K",0.0428
same,solubility (mole fraction),"in 1,4-dioxane, 303.15 K",0.073
same,solubility (mole fraction),"in 1,4-dioxane, 313.15 K",0.108
same,solubility (mole fraction),"in 1,4-dioxane, 323.15 K",0.167
same,solubility (mole fraction),"in 2-butanone, 283.15 K",0.00843
same,solubility (mole fraction),"in 2-butanone, 293.15 K",0.0131
same,solubility (mole fraction),"in 2-butanone, 303.15 K",0.0207
same,solubility (mole fraction),"in 2-butanone, 313.15 K",0.0327
same,solubility (mole fraction),"in 2-butanone, 323.15 K",0.0568
same,solubility (mole fraction),"in acetone, 283.15 K",0.0138
same,solubility (mole fraction),"in acetone, 293.15 K",0.0215
same,solubility (mole fraction),"in acetone, 303.15 K",0.037
same,solubility (mole fraction),"in acetone, 313.15 K",0.0587
same,solubility (mole fraction),"in acetone, 323.15 K",0.0959
same,solubility (mole fraction),"in acetonitrile, 283.15 K",0.00292
same,solubility (mole fraction),"in acetonitrile, 293.15 K",0.00491
same,solubility (mole fraction),"in acetonitrile, 303.15 K",0.00877
same,solubility (mole fraction),"in acetonitrile, 313.15 K",0.016
same,solubility (mole fraction),"in acetonitrile, 323.15 K",0.0326
same,solubility (mole fraction),"in dichloromethane, 283.15 K",0.00024
same,solubility (mole fraction),"in dichloromethane, 293.15 K",0.00036
same,solubility (mole fraction),"in dichloromethane, 303.15 K",0.00052
same,solubility (mole fraction),"in dichloromethane, 313.15 K",0.0007
same,solubility (mole fraction),"in dichloromethane, 323.15 K",0.00093
same,solubility (mole fraction),"in ethanol, 283.15 K",0.0453
same,solubility (mole fraction),"in ethanol, 293.15 K",0.0626
same,solubility (mole fraction),"in ethanol, 303.15 K",0.0954
same,solubility (mole fraction),"in ethanol, 313.15 K",0.135
same,solubility (mole fraction),"in ethanol, 323.15 K",0.184
same,solubility (mole fraction),"in ethyl acetate, 283.15 K",0.00265
same,solubility (mole fraction),"in ethyl acetate, 293.15 K",0.00429
same,solubility (mole fraction),"in ethyl acetate, 303.15 K",0.00641
same,solubility (mole fraction),"in ethyl acetate, 313.15 K",0.00936
same,solubility (mole fraction),"in ethyl acetate, 323.15 K",0.0153
same,solubility (mole fraction),"in isobutanol, 283.15 K",0.0229
same,solubility (mole fraction),"in isobutanol, 293.15 K",0.0345
same,solubility (mole fraction),"in isobutanol, 303.15 K",0.0531
same,solubility (mole fraction),"in isobutanol, 313.15 K",0.0779
same,solubility (mole fraction),"in isobutanol, 323.15 K",0.114
same,solubility (mole fraction),"in isopropanol, 283.15 K",0.029
same,solubility (mole fraction),"in isopropanol, 293.15 K",0.0436
same,solubility (mole fraction),"in isopropanol, 303.15 K",0.066
same,solubility (mole fraction),"in isopropanol, 313.15 K",0.0984
same,solubility (mole fraction),"in isopropanol, 323.15 K",0.14
same,solubility (mole fraction),"in methanol, 283.15 K",0.0794
same,solubility (mole fraction),"in methanol, 293.15 K",0.105
same,solubility (mole fraction),"in methanol, 303.15 K",0.141
same,solubility (mole fraction),"in methanol, 313.15 K",0.187
same,solubility (mole fraction),"in methanol, 323.15 K",0.262
same,solubility (mole fraction),"in methyl acetate, 283.15 K",0.00352
same,solubility (mole fraction),"in methyl acetate, 293.15 K",0.00525
same,solubility (mole fraction),"in methyl acetate, 303.15 K",0.0084
same,solubility (mole fraction),"in methyl acetate, 313.15 K",0.0139
same,solubility (mole fraction),"in methyl acetate, 323.15 K",0.0243
same,solubility (mole fraction),"in n-butanol, 283.15 K",0.0247
same,solubility (mole fraction),"in n-butanol, 293.15 K",0.0393
same,solubility (mole fraction),"in n-butanol, 303.15 K",0.0591
same,solubility (mole fraction),"in n-butanol, 313.15 K",0.0888
same,solubility (mole fraction),"in n-butanol, 323.15 K",0.127
same,solubility (mole fraction),"in n-pentanol, 283.15 K",0.0215
same,solubility (mole fraction),"in n-pentanol, 293.15 K",0.0309
same,solubility (mole fraction),"in n-pentanol, 303.15 K",0.0465
same,solubility (mole fraction),"in n-pentanol, 313.15 K",0.0684
same,solubility (mole fraction),"in n-pentanol, 323.15 K",0.103
same,solubility (mole fraction),"in n-propanol, 283.15 K",0.031
same,solubility (mole fraction),"in n-propanol, 293.15 K",0.0511
same,solubility (mole fraction),"in n-propanol, 303.15 K",0.077
same,solubility (mole fraction),"in n-propanol, 313.15 K",0.115
same,solubility (mole fraction),"in n-propanol, 323.15 K",0.15
same,solubility (mole fraction),"in sec-butanol, 283.15 K",0.0236
same,solubility (mole fraction),"in sec-butanol, 293.15 K",0.0375
same,solubility (mole fraction),"in sec-butanol, 303.15 K",0.0568
same,solubility (mole fraction),"in sec-butanol, 313.15 K",0.0839
same,solubility (mole fraction),"in sec-butanol, 323.15 K",0.121
same,solubility (mole fraction),"in water, 283.15 K",0.00589
same,solubility (mole fraction),"in water, 293.15 K",0.008
same,solubility (mole fraction),"in water, 303.15 K",0.0136
same,solubility (mole fraction),"in water, 313.15 K",0.0231
same,solubility (mole fraction),"in water, 323.15 K",0.0543
